Measurements from patent publication US9518060B2, “Substituted pyrrolo[3,4-c]pyrazoles as PKC kinase inhibitors” (PFIZER INC., priority 2007, dated 2016).

Biological target: Protein Kinase C beta 2 (PKCβII) (Homo sapiens (Human), UniProt P05771)
Test: PKCβII coupled spectrophotometric kinase assay (PK/LDH, NADH absorbance at 340 nm)
Type: biochemical
Conditions: apparent Ki, ATP competitive inhibition model (Morrison equation); 0.1 mM ATP, 5 nM PKC, 30° C.; read-out: Ki app
Experimental: Protein Kinase C beta 2 (PKCβII) catalyzes the production of ADP from ATP that accompanies the phosphoryl transfer to the PKC Pseudosubstrate peptide (A→S, RFARKGSLRQKNV). This transfer is coupled to the oxidation of β-NADH through the activities of Pyruvate Kinase (PK) and Lactate Dehydrogenase (LDH). β-NADH conversion to NAD+ is monitored by the decrease in absorbance at 340 nm (e=6.22 cm^−1 mM^−1) using a Molecular Devices SPECTRA max PLUS spectrophotometer.
A typical assay was carried out on a 96-well, clear microtiter plate in a Molecular Devices spectrophotometer for 20 minutes at 30° C. in 0.1 mL of assay buffer containing 50 mM HEPES, pH 7.4, 5 nM PKC, 23 units of pyruvate kinase, 33 units of lactate dehydrogenase, 0.15 mM peptide, 0.1 mM ATP, 1 mM DTT, 4 mM PEP, 8 mM MgCl2, 0.3 mM NADH, 60 mM CaCl2, 10 mg/mL PS, 50 ng/mL PMA, 7.5% DMSO and from about 10,000 nM to 0.169 nM compound inhibitor. Stock solutions of 3-sn-phosphatidyl-L-serine (PS) and phorbol-12-myristate-13-acetate (PMA) were sonicated for 30 seconds just prior to addition to assay buffer and assays were initiated by the addition of 100 μM ATP.
Steady-state kinetic parameters for the bi-bi kinase reaction were determined at saturating phospho-acceptor peptide substrate concentration (0.15 mM) by fitting initial velocity data to the Michaelis-Menten equation, v=Vmax[S]/(KM+[S]) where v is the measured initial velocity, Vmax is the maximal enzyme velocity, [S] is the ATP substrate concentration, and KM is the Michealis constant for ATP. Enzyme turnover values (kcat) were calculated according to […], where [E] is the total enzyme concentration. Enzyme inhibition constants (apparent Ki values) were determined by fitting initial velocities at variable inhibitor concentrations to a model for ATP competitive inhibition based on the Morrison equation). Morrison, J. F., Biochim. Biophys Acta 185: 269-286 (1969).

Chain of Protein Kinase C beta 2 (PKCβII) (P05771 other isoform, or with tags, fused parts or gaps): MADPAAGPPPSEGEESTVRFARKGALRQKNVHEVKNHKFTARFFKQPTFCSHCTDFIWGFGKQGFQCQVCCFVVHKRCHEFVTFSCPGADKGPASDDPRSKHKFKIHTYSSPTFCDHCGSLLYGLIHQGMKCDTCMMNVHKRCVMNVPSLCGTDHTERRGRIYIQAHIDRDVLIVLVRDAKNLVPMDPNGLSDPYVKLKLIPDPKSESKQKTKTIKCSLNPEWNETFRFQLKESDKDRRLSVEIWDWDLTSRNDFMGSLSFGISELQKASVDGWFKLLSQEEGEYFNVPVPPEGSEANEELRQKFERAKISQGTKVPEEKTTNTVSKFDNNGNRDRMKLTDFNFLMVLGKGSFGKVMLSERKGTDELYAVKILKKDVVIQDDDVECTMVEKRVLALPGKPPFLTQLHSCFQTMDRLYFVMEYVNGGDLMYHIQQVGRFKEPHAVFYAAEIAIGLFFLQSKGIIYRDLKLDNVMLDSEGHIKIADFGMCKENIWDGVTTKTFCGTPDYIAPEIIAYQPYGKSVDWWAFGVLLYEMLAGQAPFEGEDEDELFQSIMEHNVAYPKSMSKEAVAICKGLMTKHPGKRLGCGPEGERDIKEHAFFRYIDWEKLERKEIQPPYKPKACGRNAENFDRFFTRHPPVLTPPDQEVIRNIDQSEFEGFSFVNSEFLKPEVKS

Row | SMILES | Ki
1 | C[C@@H]1CN(C(=O)N2Cc3c(Nc4nc(N5CCOCC5)ncc4F)n[nH]c3C2(C)C)[C@@H](C)CN1C [Example B7, N-(5-fluoro-2-morpholin-4-ylpyrimidin-4-yl)-6,6-dimethyl-5-{[(2S,5R)-2,4,5-trimethylpiperazin-1-yl]carbonyl}-1,4,5,6-tetrahydropyrrolo[3,4-c]pyrazol-3-amine] | 0.0201 µM
2 | CCOc1nccc(Nc2n[nH]c3c2CN(C(=O)N2C[C@@H](C)N(C)C[C@@H]2C)C3(C)C)n1 [Example E3, N-(2-ethoxypyrimidin-4-yl)-6,6-dimethyl-5-{[(2S,5R)-2,4,5-trimethylpiperazin-1-yl]carbonyl}-1,4,5,6-tetrahydropyrrolo[3,4-c]pyrazol-3-amine] | 0.0131 µM
3 | CCNc1ncc(F)c(Nc2n[nH]c3c2CN(C(=O)C2(F)CCN(C)CC2)C3(C)C)n1 [Example C1, N^2-ethyl-5-fluoro-N^4-{5-[(4-fluoro-1-methylpiperidin-4-yl)carbonyl]-6,6-dimethyl-1,4,5,6-tetrahydropyrrolo[3,4-c]pyrazol-3-yl}pyrimidine-2,4-diamine] | 0.0334 µM
4 | CC[C@@H]1CN(C(=O)N2Cc3c(Nc4nc(C)ncc4F)n[nH]c3C2(C)C)CCN1C [Example H5, 5-{[(3R)-3-ethyl-4-methylpiperazin-1-yl]carbonyl}-N-(5-fluoro-2-methylpyrimidin-4-yl)-6,6-dimethyl-1,4,5,6-tetrahydropyrrolo[3,4-c]pyrazol-3-amine] | 0.0508 µM
5 | Cc1ncc(F)c(Nc2n[nH]c3c2CN(C(=O)N2C[C@@H](C)N(C4CCOCC4)C[C@@H]2C)C3(C)C)n1 [Example H7, 5-{[(2S,5R)-2,5-dimethyl-4-(tetrahydro-2H-pyran-4-yl)piperazin-1-yl]carbonyl}-N-(5-fluoro-2-methylpyrimidin-4-yl)-6,6-dimethyl-1,4,5,6-tetrahydropyrrolo[3,4-c]pyrazol-3-amine] | 0.022 µM
6 | CCc1ncc(F)c(Nc2n[nH]c3c2CN(C(=O)N2C[C@@H](C)N(CCC(F)(F)F)C[C@@H]2C)C3(C)C)n1 [Example E4, 5-{[(2S,5R)-2,5-dimethyl-4-(3,3,3-trifluoropropyl)piperazin-1-yl]carbonyl}-N-(2-ethyl-5-fluoropyrimidin-4-yl)-6,6-dimethyl-1,4,5,6-tetrahydropyrrolo[3,4-c]pyrazol-3-amine] | 0.0315 µM
7 | C[C@H]1CN(C)C(C)(C)CN1C(=O)N1Cc2c(Nc3nc(N(C)C)ncc3F)n[nH]c2C1(C)C [Example A2, N^4-(6,6-dimethyl-5-{[(2S)-2,4,5,5-tetramethylpiperazin-1-yl]carbonyl}-1,4,5,6-tetrahydropyrrolo[3,4-c]pyrazol-3-yl)-5-fluoro-N^2,N^2-dimethylpyrimidine-2,4-diamine] | 0.00875 µM
8 | CCNc1ncc(F)c(Nc2n[nH]c3c2CN(C(=O)N2C[C@@H](C)N(CC4CCOCC4)C[C@@H]2C)C3(C)C)n1 [Example A11, N^4-(5-{[(2S,5R)-2,5-dimethyl-4-(tetrahydro-2H-pyran-4-ylmethyl)piperazin-1-yl]carbonyl}-6,6-dimethyl-1,4,5,6-tetrahydropyrrolo[3,4-c]pyrazol-3-yl)-N^2-ethyl-5-fluoropyrimidine-2,4-diamine] | < 0.01 µM
9 | Cc1ncc(F)c(Nc2n[nH]c3c2CN(C(=O)N2C[C@@H](C)N(CC4(O)CCOCC4)C[C@@H]2C)C3(C)C)n1 [Example H8, 4-[((2R,5S)-4-{[3-[(5-fluoro-2-methylpyrimidin-4-yl)amino]-6,6-dimethyl-4,6-dihydropyrrolo[3,4-c]pyrazol-5(1H)-yl]carbonyl}-2,5-dimethylpiperazin-1-yl)methyl]tetrahydro-2H-pyran-4-ol] | 0.157 µM
10 | C[C@H]1CN(C)C(C)(C)CN1C(=O)N1Cc2c(Nc3nc(NC4CC4)ncc3F)n[nH]c2C1(C)C [Example A5, N2-cyclopropyl-N4-(6,6-dimethyl-5-{[(2S)-2,4,5,5-tetramethylpiperazin-1-yl]carbonyl}-1,4,5,6-tetrahydropyrrolo[3,4-c]pyrazol-3-yl)-5-fluoropyrimidine-2,4-diamine] | 0.00395 µM

Other lines, results leading:

Row | Ki | SMILES
11 | < 0.01 µM | COCc1ncc(F)c(Nc2n[nH]c3c2CN(C(=O)N2C[C@@H](C)N(CC4CCOCC4)C[C@@H]2C)C3(C)C)n1 [Example N1, 5-{[(2S,5R)-2,5-dimethyl-4-(tetrahydro-2H-pyran-4-ylmethyl)piperazin-1-yl]carbonyl}-N-[5-fluoro-2-(methoxymethyl)pyrimidin-4-yl]-6,6-dimethyl-1,4,5,6-tetrahydropyrrolo[3,4-c]pyrazol-3-amine]
12 | 0.0444 µM | CCOc1ncc(F)c(Nc2n[nH]c3c2CN(C(=O)N2CCN(C)[C@H](C)C2)C3(C)C)n1 [Example K17, 5-{[(3R)-3,4-dimethylpiperazin-1-yl]carbonyl}-N-(2-ethoxy-5-fluoropyrimidin-4-yl)-6,6-dimethyl-1,4,5,6-tetrahydropyrrolo[3,4-c]pyrazol-3-amine]
13 | 0.000181 µM | C[C@H]1CN(C)C(C)(C)CN1C(=O)N1Cc2c(Nc3nc(OCC(F)(F)F)ncc3F)n[nH]c2C1(C)C [Example K8, N-[5-fluoro-2-(2,2,2-trifluoroethoxy)pyrimidin-4-yl]-6,6-dimethyl-5-{[(2S)-2,4,5,5-tetramethylpiperazin-1-yl]carbonyl}-1,4,5,6-tetrahydropyrrolo[3,4-c]pyrazol-3-amine]
14 | 0.000376 µM | COCCCN1C[C@H](C)N(C(=O)N2Cc3c(Nc4nc(OCC(F)(F)F)ncc4F)n[nH]c3C2(C)C)C[C@H]1C [Example K6, N-[5-fluoro-2-(2,2,2-trifluoroethoxy)pyrimidin-4-yl]-5-{[(2S,5R)-4-(3-methoxypropyl)-2,5-dimethylpiperazin-1-yl]carbonyl}-6,6-dimethyl-1,4,5,6-tetrahydropyrrolo[3,4-c]pyrazol-3-amine]
15 | 0.000912 µM | CCOc1ncc(F)c(Nc2n[nH]c3c2CN(C(=O)N2CC(C)(C)N(C)C[C@@H]2C)C3(C)C)n1 [Example K3, N-(2-ethoxy-5-fluoropyrimidin-4-yl)-6,6-dimethyl-5-{[(2S)-2,4,5,5-tetramethylpiperazin-1-yl]carbonyl}-1,4,5,6-tetrahydropyrrolo[3,4-c]pyrazol-3-amine]
16 | < 0.01 µM | COCc1ncc(F)c(Nc2n[nH]c3c2CN(C(=O)N2CC(CCO)N(C)C[C@@H]2C)C3(C)C)n1 (single isomer, unassigned) [Example N2]
17 | < 0.01 µM | Cc1ccnc(Nc2n[nH]c3c2CN(C(=O)N2C[C@@H](C)N(C4CCOCC4)C[C@@H]2C)C3(C)C)n1 [Example J12, 5-{[(2S,5R)-2,5-dimethyl-4-(tetrahydro-2H-pyran-4-yl)piperazin-1-yl]carbonyl}-6,6-dimethyl-N-(4-methylpyrimidin-2-yl)-1,4,5,6-tetrahydropyrrolo[3,4-c]pyrazol-3-amine]
18 | 0.00424 µM | CCOc1ccnc(Nc2n[nH]c3c2CN(C(=O)N2C[C@@H](C)N(C)C[C@@H]2C)C3(C)C)n1 [Example M1, N-(4-ethoxypyrimidin-2-yl)-6,6-dimethyl-5-{[(2S,5R)-2,4,5-trimethylpiperazin-1-yl]carbonyl}-1,4,5,6-tetrahydropyrrolo[3,4-c]pyrazol-3-amine]
19 | 0.0152 µM | COCCOc1ncc(F)c(Nc2n[nH]c3c2CN(C(=O)N2C[C@@H](C)N(C)C[C@@H]2C)C3(C)C)n1 [Example K12, N-[5-fluoro-2-(2-methoxyethoxy)pyrimidin-4-yl]-6,6-dimethyl-5-{[(2S,5R)-2,4,5-trimethylpiperazin-1-yl]carbonyl}-1,4,5,6-tetrahydropyrrolo[3,4-c]pyrazol-3-amine]
